In US8796256B2 (Janssen Pharmaceutica NV, priority 2010, dated 2014) one finds EC50 data, which are given here for 25 compounds.

The structures appear in SMILES notation.

This assay addresses T1, ERR1 (also known as ERR-α or ERR-1) (Homo sapiens, UniProt P11474).
T1 sequence (P11474 193-421 limits assumed): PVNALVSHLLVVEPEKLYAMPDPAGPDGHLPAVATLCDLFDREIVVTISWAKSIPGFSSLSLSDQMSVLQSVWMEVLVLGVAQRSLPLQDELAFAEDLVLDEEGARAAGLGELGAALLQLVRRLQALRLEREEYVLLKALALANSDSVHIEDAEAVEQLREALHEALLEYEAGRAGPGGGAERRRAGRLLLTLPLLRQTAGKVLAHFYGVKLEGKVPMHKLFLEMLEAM
As to the kind of experiment: TR-FRET assay (disruption of co-activator peptide binding to ERR1 LBD). It is filed as biochemical. The following applies: 6 nM 6His-ERR1LBD, 6 nM GST-SRC-2 peptide; average of 3 independent experiments. Put shortly: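 His-tagged ERR1 ligand-binding domain and GST-labelled SRC-2 peptide, each 6 nM, equilibrated at 25° C for 4-18 h in Tris pH 8/Hepes/KCl/DTT/delipidated BSA buffer. Compound-induced loss of co-activator binding read as Eu cryptate→XL665 energy transfer; values from hyperbolic curve fits averaged over 3 independent runs.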
The term EC50 denotes the concentration needed to bring the measured effect to its halfway point. A low value points to greater potency. Consider `O=C(O)[C@@H](CO)N1C(=O)S/C(=C\c2ccc3c(cnn3Cc3ccc(Cl)cc3C(F)(F)F)c2)C1=O` [Compound 222, (2R)-2-[(5Z)-5-({1-[4-Chloro-2-(trifluoromethyl)benzyl]-1H-indazol-5-yl}methylidene)-2,4-dioxo-1,3-thiazolidin-3-yl]-3-hydroxypropanoic acid], for which the EC50 amounted to 58 nM.

The compound `O=C1S/C(=C\c2ccc3c(cnn3Cc3ccc(Cl)cc3C(F)(F)F)c2)C(=O)N1CCN1CC(F)(F)C1` [Compound 75, (5Z)-5-({1-[4-Chloro-2-(trifluoromethyl)benzyl]-1H-indazol-5-yl}methylidene)-3-[2-(3,3-difluoroazetidin-1-yl)ethyl]-1,3-thiazolidine-2,4-dione] showed an EC50 of 127 nM.

In turn, `O=C(CN1C(=O)S/C(=C\c2ccc3c(c2)c(Cl)nn3Cc2ccc(Cl)cc2C(F)(F)F)C1=O)NS(=O)(=O)N1CCCC1` [Compound 375, 2-[(5Z)-5-({3-Chloro-1-[4-chloro-2-(trifluoromethyl)benzyl]-1H-indazol-5-yl}methylidene)-2,4-dioxo-1,3-thiazolidin-3-yl]-N-(pyrrolidin-1-ylsulfonyl)acetamide] showed an EC50 of 70 nM.

As to `O=C1S/C(=C\c2ccc3c(cnn3Cc3ccc(Cl)cc3C(F)(F)F)c2)C(=O)N1C1(C(=O)O)CCNCC1` [Compound 230, 4-[(5Z)-5-({1-[4-Chloro-2-(trifluoromethyl)benzyl]-1H-indazol-5-yl}methylidene)-2,4-dioxo-1,3-thiazolidin-3-yl]piperidine-4-carboxylic acid], the EC50 came out at 16 nM.

The compound `O=C1S/C(=C\c2ccc3c(cnn3Cc3ccc(Cl)cc3C(F)(F)F)c2)C(=O)N1CCN1CCOCC1` [Compound 3, (5Z)-5-({1-[4-Chloro-2-(trifluoromethyl)benzyl]-1H-indazol-5-yl}methylidene)-3-(2-morpholin-4-ylethyl)-1,3-thiazolidine-2,4-dione] had an EC50 of 43 nM.

As for `O=C1OCCC1N1C(=O)S/C(=C\c2ccc3c(cnn3Cc3ccc(C(F)(F)F)cc3C(F)(F)F)c2)C1=O` (stereo not shown) [Compound 65, (5Z)-5-({1-[2,4-Bis(trifluoromethyl)benzyl]-1H-indazol-5-yl}methylidene)-3-(2-oxotetrahydrofuran-3-yl)-1,3-thiazolidine-2,4-dione], the EC50 is 50 nM.

`O=C(O)c1ccc(S(=O)(=O)NCCN2C(=O)S/C(=C\c3ccc4c(cnn4Cc4ccc(Cl)cc4C(F)(F)F)c3)C2=O)o1` [Compound 421, 5-({2-[(5Z)-5-({1-[4-Chloro-2-(trifluoromethyl)benzyl]-1H-indazol-5-yl}methylidene)-2,4-dioxo-1,3-thiazolidin-3-yl]ethyl}sulfamoyl)furan-2-carboxylic acid] gave an EC50 of 34 nM.

`O=C1S/C(=C\c2ccc3c(cnn3Cc3ccc(C(F)(F)F)cc3C(F)(F)F)c2)C(=O)N1[C@@H]1CNCC[C@H]1O` (relative stereo) [Compound 280, (5Z)-5-({1-[2,4-Bis(trifluoromethyl)benzyl]-1H-indazol-5-yl}methylidene)-3-[trans-4-hydroxypiperidin-3-yl]-1,3-thiazolidine-2,4-dione]: the EC50 was found to be 34 nM.

Compound `O=C1S/C(=C\c2ccc3c(cnn3Cc3ccc(Cl)cc3C(F)(F)F)c2)C(=O)N1CCNC(=O)C(F)(F)F` [Compound 390, N-{2-[(5Z)-5-({1-[4-Chloro-2-(trifluoromethyl)benzyl]-1H-indazol-5-yl}methylidene)-2,4-dioxo-1,3-thiazolidin-3-yl]ethyl}-2,2,2-trifluoroacetamide] had an EC50 of 64 nM.

In turn, `COc1ccc(Cn2ncc3cc(/C=C4\SC(=O)N(C5CCN(S(N)(=O)=O)CC5)C4=O)ccc32)c(C(F)(F)F)c1` [Compound 32, 4-[(5Z)-5-({1-[4-Methoxy-2-(trifluoromethyl)benzyl]-1H-indazol-5-yl}methylidene)-2,4-dioxo-1,3-thiazolidin-3-yl]piperidine-1-sulfonamide] had an EC50 of 15 nM.

The compound `CN1CCC[C@H]1CN1C(=O)S/C(=C\c2ccc3c(c2)c(Cl)nn3Cc2ccc(Cl)cc2C(F)(F)F)C1=O` [Compound 301, (5Z)-5-({3-Chloro-1-[4-chloro-2-(trifluoromethyl)benzyl]-1H-indazol-5-yl}methylidene)-3-{[(2S)-1-methylpyrrolidin-2-yl]methyl}-1,3-thiazolidine-2,4-dione] returned an EC50 of 15 nM.

`NCCN1C(=O)S/C(=C\c2ccc3c(cnn3Cc3ccc(Cl)cc3C(F)(F)F)c2)C1=O` [Compound 49, 3-(2-Aminoethyl)-(5Z)-5-({1-[4-chloro-2-(trifluoromethyl)benzyl]-1H-indazol-5-yl}methylidene)-1,3-thiazolidine-2,4-dione]: the EC50 was found to be 25 nM.

Compound `O=C1S/C(=C\c2ccc3c(c2)c(Cl)nn3Cc2ccc(Cl)cc2C(F)(F)F)C(=O)N1CCN1CCCC1` [Compound 300, (5Z)-5-({3-Chloro-1-[4-chloro-2-(trifluoromethyl)benzyl]-1H-indazol-5-yl}methylidene)-3-(2-pyrrolidin-1-ylethyl)-1,3-thiazolidine-2,4-dione] yielded an EC50 of 7 nM.

Take `O=C1S/C(=C\c2ccc3c(cnn3Cc3ccc(C(F)(F)F)cc3C(F)(F)F)c2)C(=O)N1C1CCNCC1` [Compound 67, (5Z)-5-({1-[2,4-Bis(trifluoromethyl)benzyl]-1H-indazol-5-yl}methylidene)-3-piperidin-4-yl-1,3-thiazolidine-2,4-dione]: the EC50 came to 620 nM.

`CCN1CCC(F)(CN2C(=O)S/C(=C\c3ccc4c(cnn4Cc4ccc(Cl)cc4C(F)(F)F)c3)C2=O)CC1` [Compound 306, (5Z)-5-({1-[4-Chloro-2-(trifluoromethyl)benzyl]-1H-indazol-5-yl}methylidene)-3-[(1-ethyl-4-fluoropiperidin-4-yl)methyl]-1,3-thiazolidine-2,4-dione]: it took 71 nM to reach a half-maximal effect (EC50).

In turn, `COC(=O)[C@H](COC(C)(C)C)N1C(=O)S/C(=C\c2ccc3c(cnn3Cc3ccc(Cl)cc3C(F)(F)F)c2)C1=O` [Compound 210, Methyl (2S)-3-tert-butoxy-2-[(5Z)-5-({1-[4-chloro-2-(trifluoromethyl)benzyl]-1H-indazol-5-yl}methylidene)-2,4-dioxo-1,3-thiazolidin-3-yl]propanoate] showed an EC50 of 260 nM.

As for `O=C1S/C(=C\c2ccc3c(cnn3Cc3ccc(Cl)cc3C(F)(F)F)c2)C(=O)N1CCC1CCNCC1` [Compound 164, (5Z)-5-({1-[4-Chloro-2-(trifluoromethyl)benzyl]-1H-indazol-5-yl}methylidene)-3-(2-piperidin-4-ylethyl)-1,3-thiazolidine-2,4-dione], the EC50 was found to be 47 nM.

Take `N[C@H]1CC[C@H](N2C(=O)S/C(=C\c3ccc4c(cnn4Cc4ccc(Cl)cc4C(F)(F)F)c3)C2=O)CC1` [Compound 176, (5Z)-3-(trans-4-Aminocyclohexyl)-5-({1-[4-chloro-2-(trifluoromethyl)benzyl]-1H-indazol-5-yl}methylidene)-1,3-thiazolidine-2,4-dione]: the EC50 stood at 58 nM.

`CN1C[C@@H](O)[C@H](N2C(=O)S/C(=C\c3ccc4c(cnn4Cc4ccc(Cl)cc4C(F)(F)F)c3)C2=O)C1` (relative stereo) [Compound 318] had an EC50 of 24 nM.

Turning to `CN(C)S(=O)(=O)NC(=O)CN1C(=O)S/C(=C\c2ccc3c(cnn3Cc3ccc(C(F)(F)F)cc3C(F)(F)F)c2)C1=O` [Compound 88, 2-[(5Z)-5-({1-[2,4-Bis(trifluoromethyl)benzyl]-1H-indazol-5-yl}methylidene)-2,4-dioxo-1,3-thiazolidin-3-yl]-N-(dimethylsulfamoyl)acetamide], the EC50 was 134 nM.

Compound `NC1(CN2C(=O)S/C(=C\c3ccc4c(cnn4Cc4ccc(C(F)(F)F)cc4C(F)(F)F)c3)C2=O)CCOCC1` [Compound 310, (5Z)-3-[(4-Aminotetrahydro-2H-pyran-4-yl)methyl]-5-({1-[2,4-bis(trifluoromethyl)benzyl]-1H-indazol-5-yl}methylidene)-1,3-thiazolidine-2,4-dione] showed an EC50 of 86 nM.

The compound `O=C1S/C(=C\c2ccc3c(cnn3Cc3ccc(Cl)cc3C(F)(F)F)c2)C(=O)N1[C@@H]1CNCC[C@H]1O` (relative stereo) [Compound 279, (5Z)-5-({1-[4-Chloro-2-(trifluoromethyl)-benzyl]-1H-indazol-5-yl}methylidene)-3-[trans-4-hydroxypiperidin-3-yl]-1,3-thiazolidine-2,4-dione] registered an EC50 of 22 nM.

`O=C1S/C(=C\c2ccc3c(cnn3Cc3ccc(C(F)(F)F)cc3C(F)(F)F)c2)C(=O)N1C[C@@H]1CCCN2CCCC[C@H]12` [Compound 207, (5Z)-5-({1-[2,4-Bis(trifluoromethyl)benzyl]-1H-indazol-5-yl}methylidene)-3-[(1S,9aR)-octahydro-2H-quinolizin-1-ylmethyl]-1,3-thiazolidine-2,4-dione] displayed a 50% effective concentration (EC50) of 192 nM.

On to `O=C(O)CN1C(=O)S/C(=C\c2cc3cnn(Cc4ccc(Cl)cc4C(F)(F)F)c3cc2F)C1=O` [Compound 348, [(5Z)-5-({1-[4-Chloro-2-(trifluoromethyl)benzyl]-6-fluoro-1H-indazol-5-yl}methylidene)-2,4-dioxo-1,3-thiazolidin-3-yl]acetic acid], for which the EC50 was found to be 7 nM.

Compound `Cc1nn(Cc2ccc(Cl)cc2C(F)(F)F)c2ccc(/C=C3\SC(=O)N([C@@H]4CCN(C)C[C@H]4F)C3=O)cc12` (relative stereo) [Compound 335, (5Z)-5-({1-[4-Chloro-2-(trifluoromethyl)benzyl]-3-methyl-1H-indazol-5-yl}methylidene)-3-[trans-3-fluoro-1-methylpiperidin-4-yl]-1,3-thiazolidine-2,4-dione] registered an EC50 of 46 nM.
